{
  "source": "paper PMC6694155",
  "about": "“PTPσ inhibitors promote hematopoietic stem cell regeneration” (Nature Communications, 2019)",
  "key": {"catalytic domain of PTPσ": {"system": "catalytic domain of PTPσ", "set-up": "method as in PMID 23185579", "conditions": "cited from earlier work"}, "BM KSL cells [1]": {"system": "BM KSL cells", "assay": "Cell cycle analysis (Ki67/7AAD) of BM KSL cells", "type": "cell-based, mouse", "conditions": "BM KSL cells following irradiation", "method": "(§1) Eight- to ten-week-old female C57BL/6 mice were irradiated with 500 cGy TBI followed by subcutaneous injections of 5 mg/kg DJ001 or vehicle, or 5 mg/kg DJ001 plus 40 mg/kg EHT1864. Twenty four hours after irradiation, mice were killed to collect BM cells for Annexin V apoptosis analysis. BM cells were stained with APC-Cy7-conjugated anti-mouse Sca1 (BD Biosciences, #560654, 1:100), PE-conjugated anti-ckit (BD Biosciences, #553355, 1:100), and V450 lineage cocktail (BD Biosciences, #561301, 1:10) antibodies for 30 min at 4 °C. Cells were then resuspended in 1× Annexin V binding buffer and then stained with FITC-conjugated anti-Annexin V antibody (BD Biosciences, #556547,1:50) and 7AAD antibody (BD Biosciences, #559925, 1:40)[68]. For in vitro human BM cell apoptosis assays, isolated human BM CD34^+ cells were plated into 96-well plates and then irradiated with 300 cGy. Immediately after irradiation, cells were treated with 5 μg/mL DJ001 or vehicle for 24 h and then collected for Annexin V cell apoptosis analysis. For cell cycle analysis, BM KSL cells were irradiated at 300 cGy and then treated with 1 μg/mL DJ001 or vehicle for 36 h. Subsequently, cells were resuspended in 200 μL of PBS, fixed with 1 mL of ice-cold fixation solution (0.25% Saponin, 2.5% PFA, 2% fetal calf serum (FCS) in PBS), and incubated for 30 min on ice. Cells were washed in Saponin buffer (0.25% Saponin, 2% FCS in PBS) and resuspended in 200 μL of Saponin buffer containing 20 μL of FITC-conjugated anti-Ki67 antibody (BD Biosciences, #556026, 1:10) and 1 μL of RNase (Qiagen, #19101, 100 mg/mL). After 30 min of incubation, cells were washed in Saponin buffer and resuspended for flow analysis in 200 μL of Saponin buffer containing 5 μL 7AAD (BD Biosciences, #559925, 1:40)."}, "C57BL/6 mice": {"system": "C57BL/6 mice", "assay": "Survival study after 750 cGy TBI", "type": "in vivo, mouse", "conditions": "750 cGy, systemic EHT1864", "method": "For survival studies, 10-week-old female C57BL/6 mice were irradiated with 750 cGy TBI, which is lethal for ~50% of C57BL/6 mice by day + 30 (LD50/30), using a Shepherd Cesium-137 irradiator. Twenty four hours post irradiation, mice were administered daily subcutaneous injections of 5 mg/kg DJ001 or DJ009, or vehicle in a volume of 100 μL for 10 days. DJ001 or DJ009 injections were prepared in PBS, 0.5% Tween 80, and 10% DMSO. Corresponding vehicle injections contained PBS, 10% DMSO, and 0.5% Tween 80. PB complete blood counts were measured using a Hemavet 950 instrument (Drew Scientific) at day + 10 post irradiation. For hematopoietic analysis, BM cells were collected at day + 10 post irradiation. To study whether DJ001 increased survival rates through activation of RAC signaling, the RAC inhibitor, EHT1864 (Selleckchem), was dissolved in PBS and administered intraperitoneally, 40 mg/kg every other day, to 750 cGy-irradiated mice until day + 10."}, "BM KSL cells [2]": {"system": "BM KSL cells", "assay": "CFC assay from 300 cGy-irradiated BM KSL cells, 3 day culture", "type": "cell-based, mouse", "set-up": "CFU-GM / BFU-E: unit not given here", "method": "CFC assays (colony-forming unit-granulocyte monocyte), burst-forming unit-erythroid, and CFU-GEMM were performed using MethoCult GF M3434 (Stemcell Technologies)[6]. […] Recombinant mouse SCF, Flt3 ligand, and TPO were purchased from R&D Systems. For competitive repopulation assays, BM cells were isolated from donor 10–12-week-old female CD45.2^+ mice. Recipient 10-week-old female CD45.1^+ B6.SJL mice were irradiated with 950 cGy TBI using a Cs137 irradiator and donor BM cells were administered via tail vein injection along with a competing dose of 1 × 10^5 non-irradiated host BM cells. Multilineage donor hematopoietic cell engraftment was measured in the PB by flow cytometry."}, "BM KSL cells [3]": {"system": "BM KSL cells", "assay": "Annexin V/7AAD apoptosis assay of BM KSL cells from mice 24 h post 500 cGy TBI", "type": "in vivo, mouse", "method": "as §1"}, "p-PAK1 in BM KSL cells": {"system": "p-PAK1 in BM KSL cells", "assay": "p-PAK1 phospho-flow cytometry of BM KSL cells", "type": "cell-based, mouse", "conditions": "BM KSL cells, DJ001 + 6 μg/mL EHT1864", "method": "(§2) Intracellular flow cytometric analysis was performed on irradiated (300 cGy) or non-irradiated, sorted KSL cells after treatment with 1 μg/mL DJ001 or control (equal volumes of DMSO) for 24 h. At 24 h after irradiation, cells were fixed with 4% PFA for 10 min, followed by permeabilization using 0.25% saponin in PBS. Cells were washed again and stained with antibody at the recommended concentrations for 30 min at RT. Intracellular antibodies and phospho-flow antibodies used were as follows: FITC-conjugated anti-BCL-XL (Abcam, #26148, 1:100), active RAC1-GTP antibody (NewEast Biosciences, #26903, 1:100) and anti-PAK1 (phospho S144) + PAK2 (phospho S141) + PAK3 (phospho S154) antibody (Abcam, #40795, 1:100), and FITC-conjugated goat anti-rabbit IgG H&L (Abcam, #97050, 1:200)."}, "BCL-XL in BM KSL cells": {"system": "BCL-XL in BM KSL cells", "assay": "BCL-XL protein intracellular flow cytometry of BM KSL cells", "type": "cell-based, mouse", "conditions": "BM KSL cells, 24 hours following 300 cGy, 43 ng/ml BVD523", "method": "as §2"}},
  "note": "“And” between values parts separate entries of the source, which are not always exact repeats. Identical values can stand only once.",
  "data": [
    {"compound": "O=C(/C=C\\Nc1cc([N+](=O)[O-])ccc1O)c1ccc(Cl)c(Cl)c1", "note": "[compound 5075, reference compound]", "values": [
      {"measurement": "reported properties against the catalytic domain of PTPσ", "setting": "catalytic domain of PTPσ", "result": "binding and inhibitory properties"}
    ]},
    {"compound": "O=c1cc(CN2CCOCC2)occ1OCCCCCSc1ccnc2cc(C(F)(F)F)ccc12", "note": "[EHT1864, reference compound]", "values": [
      {"measurement": "effect on DJ001-mediated induction of cell cycle progression", "setting": "BM KSL cells [1]", "result": "suppressed DJ001-mediated induction of cell cycle progression"},
      {"measurement": "effect on DJ001-mediated increase in survival of irradiated mice", "setting": "C57BL/6 mice", "result": "completely blocked DJ001-mediated increase in survival"},
      {"measurement": "effect on DJ001-mediated CFC generation", "setting": "BM KSL cells [2]; BM KSL cells irradiated with 300 cGy in vitro, 6 µg/ml EHT1864", "result": "inhibited DJ001-mediated CFC generation"},
      {"measurement": "BFU-E", "setting": "BM KSL cells [2]; Supplementary Figure 7d", "result": "1 and 2"},
      {"measurement": "CFU-GM", "setting": "BM KSL cells [2]; Supplementary Figure 7d", "result": "9 and 6 and 11 and 10 and 12"},
      {"measurement": "Figure 3e: Annexin V/7AAD apoptosis of BM KSL cells", "setting": "BM KSL cells [3]; 24 h post 500 cGy TBI, individual mice", "result": "24.85 and 19.31 and 21.21 and 22.28"},
      {"measurement": "effect on DJ001-mediated anti-apoptotic effects on BM KSL cells", "setting": "BM KSL cells [3]; irradiated mice", "result": "abrogated DJ001-mediated anti-apoptotic effects"},
      {"measurement": "effect on DJ001-mediated phosphorylation of PAK1", "setting": "p-PAK1 in BM KSL cells", "result": "abrogated DJ001-mediated phosphorylation of PAK1"}
    ]},
    {"compound": "CC(C)Nc1cc(-c2c[nH]c(C(=O)N[C@H](CO)c3cccc(Cl)c3)c2)c(Cl)cn1", "note": "[BVD523, reference compound]", "values": [
      {"measurement": "effect on DJ001-mediated increase in BCL-XL protein levels", "setting": "BCL-XL in BM KSL cells", "result": "blocked DJ001-mediated increase in BCL-XL protein levels"},
      {"measurement": "effect on hematopoietic progenitor cell recovery following irradiation", "setting": "BM KSL cells [2]; DJ001 + 43 ng/mL BVD523, 300 cGy, day +3", "result": "abrogated hematopoietic progenitor cell recovery"}
    ]},
    {"compound": "COc1ccc2c(c1)/C(=C/c1cnc[nH]1)C(=O)N2", "note": "[SU9516, reference compound]", "values": [
      {"measurement": "effect on DJ001-mediated induction of cell cycle progression", "setting": "BM KSL cells [1]", "result": "suppressed DJ001-mediated induction of cell cycle progression"}
    ]}
  ]
}
